In paper PMC10962542, “Inhibition of Aurora‐A/N‐Myc Protein–Protein Interaction Using Peptidomimetics: Understanding the Role of Peptide Cyclization” (Chembiochem, 2023):
Like-named read-outs stand apart in the source and are kept apart here. *1 amine or outer side, *2 acyl side, *3 side chain or, on linkers, in order; H or OH if unused. Where a SMILES comes first, the peptide text is derived from it. Bridges are numbered along the chain shown (N, C = ends). Maleimide(3,4-diyl) = O=C1NC(=O)C([*:2])=C1[*:1]

How the values were obtained:
[1] = molecular target: T1, N‐Myc/Aurora‐A interaction (Aurora‐A122‐403‐C290A/C393A) (Homo sapiens, UniProt O14965, C290A/C393A); assay: competition fluorescence anisotropy (FA) assay against fluorescein labelled N‐Myc61‐89; assay type: binding; note: equilibrated 2 h at room temperature
T1 construct: Aurora‐A 122‐403‐C290A/C393A protein was produced as described previously; made in house
T1 sequence (O14965 122-403 C290A/C393A): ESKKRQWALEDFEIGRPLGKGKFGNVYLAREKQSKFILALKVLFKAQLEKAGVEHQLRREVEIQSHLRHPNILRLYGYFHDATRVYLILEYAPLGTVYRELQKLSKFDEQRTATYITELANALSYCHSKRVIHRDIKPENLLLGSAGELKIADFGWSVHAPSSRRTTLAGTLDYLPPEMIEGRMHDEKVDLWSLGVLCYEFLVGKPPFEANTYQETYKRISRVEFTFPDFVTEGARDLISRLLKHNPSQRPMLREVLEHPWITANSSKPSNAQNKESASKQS
Experimental: Fluorescence anisotropy (FA) assays: All assays were performed using 384‐well plates (Greiner Bio‐one, UK). […] All samples were prepared in 25 mM Tris, 150 mM NaCl, 5 mM MgCl2, pH 7.5, and tested in triplicate using an EnVisionTM 2103 MultiLabel plate reader (Perkin Elmer; Waltham, MA, USA). The parameters were set as follows: Excitation wavelength=480 nm (30 nm bandwidth) and emission wavelength=535 nm (30 nm bandwidth). Measured data were processed and analysed as previously described.[31] Specifically, the perpendicular intensity (P) and parallel intensity (S) were subtracted by the control values and used for calculations of intensity and anisotropy using the following Equations 1, 2, 3, 4, and 5: (1) I=2PG+S (2) r=S-PG (3) Lb=r-rmin/λrmax-r+r-rmin (4) [drawing 1] (5) y=rmax+rmin-rmax/1+(x/x0)^p
For competition FA assays, the average anisotropy and the average standard deviation of the values derived from equation (2) were calculated and fit to a sigmoidal logistic model (equation (5)) using Origin 2021. […] Results are reported as IC50±SD, with data points representing the mean of three replicates and error bars indicating the corresponding SD. Where applicable, ΔΔG was determined as follows: ΔΔG=−RT ln (ΔIC50).

[2] = circular dichroism (CD) spectroscopy; assay type: physicochemical; conditions: 150 mM NaCl, 5 mM MgCl2, pH 7.5, 5 °C, n=2, free‐thiol (red) samples with 5 mol equivalents TCEP; for MRE222 (mean residue ellipticity at 222 nm): 25 mM Tris, mean ± SD, SD; for % Helicity (estimated): from MRE222 by equation 7, 25 mM Tris
Experimental: Circular dichroism (CD): All samples were prepared in Tris buffer (25 mM Tris, 150 mM NaCl, 5 mM MgCl2, pH 7.5) with the exception of free sulfhydryl peptides, to which Tris(2‐carboxyethyl)phosphine (TCEP; 5 mol eq. relative to the peptide) was added. CD spectra were recorded using an APP Chirascan CD spectropolarimeter and 1 mm pathlength quartz cuvettes. Sample concentrations were typically 30–120 μM, as determined by UV−V absorption based on a tryptophan extinction coefficient of 5600 M^−1 cm^−1 and, for mal‐constrained variants, a maleimide coefficient of 1700 M^−1 cm^−1.[16, 32] […] Spectra were recorded in duplicate at 5 °C, over wavelengths ranging from 290 to 180 nm, with data collected every 1 nm (1 nm s^−1). A background spectrum for CD buffer alone was also recorded and background ellipticity values were subtracted from raw sample ellipticity values (θ) when calculating mean residue ellipticities (MREs) using Equation 6: (6) MRE=(θλ-θ0)xMw/nxlxc
Where [θ]λ is the observed ellipticity at a given wavelength λ in mdeg, [θ]0 is the ellipticity observed for the buffer, Mw =molar weight of the peptide in g mol^−1, n=number of residues; c=sample concentration (mg mL^−1); l=pathlength of the cuvette in mm. Estimates of peptide % helicity were made using Equation 7, [33] (7) %helicity=(MRE222-MREcoil)x100/-425001-3/n
where MRE222 is the MRE value at 222 nm, MREcoil=640‐45T (with T in °C)=415 deg cm^2 dmol^−1 res^−1 at 5 °C, and n is the number of backbone amide bonds including the N‐terminal acetyl.

IC50 ([1]; SD)	MRE222 (mean residue ellipticity at 222 nm) [2]	% Helicity (estimated) [2]	IC50 [1]	Compound
107 ± 19 µM	-2656 ± 28 deg cm^−1 dmol^−1 res^−1	8 ± 1%	–	CSCC[C@@H]1NC(=O)[C@@H](NC(=O)[C@@H](NC(=O)[C@@H](NC(=O)[C@H](Cc2c[nH]c3ccccc23)NC(=O)[C@H](CO)NC(=O)[C@@H]2CCCN2C(=O)[C@@H]2CCCN2C(=O)[C@H](CCC(=O)O)NC(=O)[C@H](CO)NC(=O)[C@H](CO)NC(=O)[C@H](Cc2c[nH]cn2)NC(=O)[C@H](CCC(=O)O)NC(=O)[C@H](C)NC(=O)[C@H](Cc2ccccc2)NC(=O)CNC(=O)[C@H](CCCNC(=N)N)NC(=O)[C@H](CO)NC(=O)[C@@H]2CCCN2C(=O)[C@H](CO)NC(=O)[C@H](CC(C)C)NC(C)=O)C(C)C)[C@@H](C)O)CSSC[C@@H](C(=O)N[C@@H](CC(N)=O)C(=O)N[C@@H](CCC(=O)O)C(=O)N[C@@H](CC(C)C)C(=O)N[C@@H](Cc2c[nH]c3ccccc23)C(=O)NCC(N)=O)NC(=O)[C@H](CC(C)C)NC(=O)[C@H](CC(C)C)NC1=O [N-Myc 61-89 E80C/E84C ox] (Ac-LSPSRGFAEHSSEPPSWVTCMLLCNELWG-NH2; disulfide 20-24)
219 ± 23 µM	-2630 ± 119 deg cm^−1 dmol^−1 res^−1	8 ± 1%	–	CSCC[C@H](NC(=O)[C@H](CCC(=O)O)NC(=O)[C@@H](NC(=O)[C@@H](NC(=O)[C@H](Cc1c[nH]c2ccccc12)NC(=O)[C@H](CO)NC(=O)[C@@H]1CCCN1C(=O)[C@@H]1CCCN1C(=O)[C@H](CCC(=O)O)NC(=O)[C@H](CO)NC(=O)[C@H](CO)NC(=O)[C@H](Cc1c[nH]cn1)NC(=O)[C@H](CCC(=O)O)NC(=O)[C@H](C)NC(=O)[C@H](Cc1ccccc1)NC(=O)CNC(=O)[C@H](CCCNC(=N)N)NC(=O)[C@H](CO)NC(=O)[C@@H]1CCCN1C(=O)[C@H](CO)NC(=O)[C@H](CC(C)C)NC(C)=O)C(C)C)[C@@H](C)O)C(=O)N[C@H]1CSSC[C@@H](C(=O)N[C@@H](CC(C)C)C(=O)N[C@@H](Cc2c[nH]c3ccccc23)C(=O)NCC(N)=O)NC(=O)[C@H](CC(N)=O)NC(=O)[C@H](CCC(=O)O)NC(=O)[C@H](CC(C)C)NC1=O [N-Myc 61-89 L82C/E86C ox] (Ac-LSPSRGFAEHSSEPPSWVTEMCLENCLWG-NH2; disulfide 22-26)
92 ± 13 µM	-2894 ± 119 deg cm^−1 dmol^−1 res^−1	9 ± 1%	–	CC(=O)N[C@@H](CC(C)C)C(=O)N[C@@H](CO)C(=O)N1CCC[C@H]1C(=O)N[C@@H](CO)C(=O)N[C@@H](CCCNC(=N)N)C(=O)NCC(=O)N[C@@H](Cc1ccccc1)C(=O)N[C@@H](C)C(=O)N[C@@H](CCC(=O)O)C(=O)N[C@@H](Cc1c[nH]cn1)C(=O)N[C@@H](CO)C(=O)N[C@@H](CO)C(=O)N[C@@H](CCC(=O)O)C(=O)N1CCC[C@H]1C(=O)N1CCC[C@H]1C(=O)N[C@@H](CO)C(=O)N[C@@H](Cc1c[nH]c2ccccc12)C(=O)N[C@H](C(=O)N[C@H](C(=O)N[C@@H](CCC(=O)O)C(=O)N[C@H]1CSSC[C@@H](C(=O)N[C@@H](CCC(=O)O)C(=O)N[C@@H](CC(C)C)C(=O)N[C@@H](Cc2c[nH]c3ccccc23)C(=O)NCC(N)=O)NC(=O)[C@H](CCC(=O)O)NC(=O)[C@H](CC(C)C)NC(=O)[C@H](CC(C)C)NC1=O)[C@@H](C)O)C(C)C [N-Myc 61-89 M81C/N85C ox] (Ac-LSPSRGFAEHSSEPPSWVTECLLECELWG-NH2; disulfide 21-25)
84 ± 9 µM	-2141 ± 88 deg cm^−1 dmol^−1 res^−1	7 ± 1%	–	CSCC[C@H](NC(=O)[C@@H]1CSSC[C@H](NC(=O)[C@@H]2CCCN2C(=O)[C@@H]2CCCN2C(=O)[C@H](CCC(=O)O)NC(=O)[C@H](CO)NC(=O)[C@H](CO)NC(=O)[C@H](Cc2c[nH]cn2)NC(=O)[C@H](CCC(=O)O)NC(=O)[C@H](C)NC(=O)[C@H](Cc2ccccc2)NC(=O)CNC(=O)[C@H](CCCNC(=N)N)NC(=O)[C@H](CO)NC(=O)[C@@H]2CCCN2C(=O)[C@H](CO)NC(=O)[C@H](CC(C)C)NC(C)=O)C(=O)N[C@@H](Cc2c[nH]c3ccccc23)C(=O)N[C@@H](C(C)C)C(=O)N[C@@H]([C@@H](C)O)C(=O)N1)C(=O)N[C@@H](CC(C)C)C(=O)N[C@@H](CC(C)C)C(=O)N[C@@H](CCC(=O)O)C(=O)N[C@@H](CC(N)=O)C(=O)N[C@@H](CCC(=O)O)C(=O)N[C@@H](CC(C)C)C(=O)N[C@@H](Cc1c[nH]c2ccccc12)C(=O)NCC(N)=O [N-Myc 61-89 S76C/E80 ox] (Ac-LSPSRGFAEHSSEPPCWVTCMLLENELWG-NH2; disulfide 16-20)
152 ± 15 µM	-1907 ± 23 deg cm^−1 dmol^−1 res^−1	6 ± 1%	–	CSCC[C@H](NC(=O)[C@H](CCC(=O)O)NC(=O)[C@H](CS)NC(=O)[C@@H](NC(=O)[C@H](Cc1c[nH]c2ccccc12)NC(=O)[C@H](CO)NC(=O)[C@@H]1CCCN1C(=O)[C@@H]1CCCN1C(=O)[C@H](CCC(=O)O)NC(=O)[C@H](CO)NC(=O)[C@H](CO)NC(=O)[C@H](Cc1c[nH]cn1)NC(=O)[C@H](CCC(=O)O)NC(=O)[C@H](C)NC(=O)[C@H](Cc1ccccc1)NC(=O)CNC(=O)[C@H](CCCNC(=N)N)NC(=O)[C@H](CO)NC(=O)[C@@H]1CCCN1C(=O)[C@H](CO)NC(=O)[C@H](CC(C)C)NC(C)=O)C(C)C)C(=O)N[C@@H](CC(C)C)C(=O)N[C@@H](CS)C(=O)N[C@@H](CCC(=O)O)C(=O)N[C@@H](CC(N)=O)C(=O)N[C@@H](CCC(=O)O)C(=O)N[C@@H](CC(C)C)C(=O)N[C@@H](Cc1c[nH]c2ccccc12)C(=O)NCC(N)=O [N-Myc 61-89 T79C/L83C red] (Ac-LSPSRGFAEHSSEPPSWVCEMLCENELWG-NH2)
–	-1767 ± 72 deg cm^−1 dmol^−1 res^−1	6 ± 1%	≥ 500 µM	CSCC[C@@H]1NC(=O)[C@H](CCC(=O)O)NC(=O)[C@H]([C@@H](C)O)NC(=O)[C@@H](NC(=O)[C@H](Cc2c[nH]c3ccccc23)NC(=O)[C@H](CO)NC(=O)[C@@H]2CCCN2C(=O)[C@@H]2CCCN2C(=O)[C@H](CCC(=O)O)NC(=O)[C@H](CO)NC(=O)[C@H](CO)NC(=O)[C@H](Cc2c[nH]cn2)NC(=O)[C@H](CCC(=O)O)NC(=O)[C@H](C)NC(=O)[C@H](Cc2ccccc2)NC(=O)CNC(=O)[C@H](CCCNC(=N)N)NC(=O)[C@H](CO)NC(=O)[C@@H]2CCCN2C(=O)[C@H](CO)NC(=O)[C@H](CC(C)C)NC(C)=O)CSC2=C(SC[C@@H](C(=O)N[C@@H](CC(C)C)C(=O)N[C@@H](CCC(=O)O)C(=O)N[C@@H](CC(N)=O)C(=O)N[C@@H](CCC(=O)O)C(=O)N[C@@H](CC(C)C)C(=O)N[C@@H](Cc3c[nH]c4ccccc34)C(=O)NCC(N)=O)NC1=O)C(=O)NC2=O [N-Myc 61-89 V78C/L82C mal] (Ac-LSPSRGFAEHSSEPPSWCTEMCLENELWG-NH2; linker 18-22 via Maleimide(3,4-diyl))
